This is an account of results in patent US10220033B2, “Substituted benzoxazepine for cancer therapy” (University of Cape Town, priority 2014, dated 2019).

Molecules are shown by their SMILES. Read-outs that look alike come from different tables or passages of the source.

Series [1] relates to WHCO5 oesophageal cancer cell line. The series can be described thus: MTT assay for cell viability, IC50 determination. It counts as cell-based, human. As to conditions: MTT. As for the experimental part: (§1) Cells were plated in 96-well plates and treated with varying concentrations of a test compound for 48 hours, after which MTT dye, 3-(4,5-dimethylthiazol-2-yl)-2,5-diphenyltetrazolium bromide (Sigma), was added, and crystals solubilised 4 hours later using Solubilisation Reagent (10% SLS in 0.01 M HCl). Absorbencies were measured at 595 nm the following day using a BioTek microplate spectrophotometer (Winooski, Vt., USA) and IC50 curves were generated using GraphPad Prism.

A short description of series [2]: MTT assay for cell viability, IC50 determination. The class given is cell-based. Conditions: Homo sapiens, MCF-12A; MCF12A; 48 hours, MTT. As for the experimental part: as §1
Background: Tetrazolium dyes change colour on reduction, which living cells bring about.

The test system of series [3] is A2780 ovarian cancer cell line. The experiment in a line: MTT assay for cell viability, IC50 determination. It counts as cell-based. Conditions: Homo sapiens, 48 hours. As for the experimental part: as §1
In series [4] the test system is CP70 ovarian cancer cell line. The series can be described thus: MTT assay for cell viability, IC50 determination. The class given is cell-based. Conditions: 48 hours. As for the experimental part: as §1
Series [5] concerns CaSki cervical cancer cell line. The experiment in a line: MTT assay for cell viability, IC50 determination. The class given is cell-based. Conditions: MTT, read-out: IC50. As for the experimental part:
as §1

Series [6] concerns DMB normal skin fibroblasts (non-cancer). The series can be described thus: MTT assay for cell viability, IC50 determination. It counts as cell-based. As to conditions: Skin fibroblast; DMB non-cancer; 48 hours, MTT. As for the experimental part:
as §1

The test system of series [7] is FG0 normal skin fibroblasts (non-cancer). The experiment in a line: MTT assay for cell viability, IC50 determination. Conditions: Skin fibroblast, 48 hours. The class given is cell-based. As for the experimental part:
as §1

In series [8] the test system is KYSE150 oesophageal cancer cell line. The experiment in a line: MTT assay for cell viability, IC50 determination. The class given is cell-based. Conditions: Homo sapiens, KYSE-150; KYSE150; 48 hours, MTT. As for the experimental part: as §1
In series [9] the test system is KYSE30 oesophageal cancer cell line. The experiment in a line: MTT assay for cell viability, IC50 determination. Conditions: Homo sapiens, KYSE-30, 48 hours. It counts as cell-based. As for the experimental part:
as §1

The subject of series [10] is MCF7 breast cancer cell line. The series can be described thus: MTT assay for cell viability, IC50 determination. As to conditions: Homo sapiens, 48 hours, MTT. It counts as cell-based. As for the experimental part:
as §1

The subject of series [11] is OVCAR3 ovarian cancer cell line. The series can be described thus: MTT assay for cell viability, IC50 determination. It counts as cell-based. As to conditions: Homo sapiens, OVCAR-3, 48 hours. As for the experimental part: as §1
Series [12] relates to SVWI38 transformed cell line. The series can be described thus: MTT assay for cell viability, IC50 determination. It counts as cell-based. Conditions: SVWI38 transformed; 48 hours, MTT. As for the experimental part:
as §1

Series [13] has as its system WI38 non-cancer cell line. The experiment in a line: MTT assay for cell viability, IC50 determination. The class given is cell-based. As to conditions: Homo sapiens, WI-38; WI38 non-cancer; 48 hours, MTT. As for the experimental part:
as §1

Series [14] deals with GFP-Kpnα2 localisation in CaSki cells. The experiment in a line: GFP-Kpnα2 nuclear translocation, fluorescence microscopy. The class given is cell-based. Conditions: 10 μM. As for the experimental part: For controls, equivalent volumes of DMSO were used. Cells were fixed with 4% paraformaldehyde prior to fluorescence microscopy and cell nuclei were stained with 0.5 μg/ml DAPI. Due to fluorescence emitted by Compound A in the GFP channel, the Compound A signal had to be excluded from the GFP signal by separating the emission spectra. A Zeiss LSM 510 Meta confocal microscope was used and images captured using the ZEN 2009 camera with associated AxioVision software (version 4.7). Pictures were edited using the Zeiss image browser. For quantification, 100 cells from each condition were analysed using Image J.
Compound A with cell-killing ability was tested for its ability to block nuclear import using a fluorescence-based screening assay. The assay was based on the fact that Kpnα enters the nucleus in a complex with Kpnβ1. Kpnα2 (Impα1 or Rch1) was GFP-tagged (FIG. 8) and its localisation monitored after treatment with the various compounds, via fluorescence microscopy. […] It was noted that Compound A fluoresced itself, and thus the compound fluorescence signal had to be excluded from the GFP-Kpnα2 signal by separating the emission spectra.

Series [15] has as its system NFY nuclear localisation in CaSki cells. The series can be described thus: Nuclear and cytoplasmic protein extraction, Western Blot. The class given is cell-based. As to conditions: IC50 concentration, 48 hours (FIGS. 11, 12). As for the experimental part: (§2) Nuclear and cytoplasmic protein fractionation was performed using the NE-PER Nuclear Protein Extraction Kit (ThermoScientific, Rockford, Ill., USA), according to the manufacturer's instructions. […] Western Blot analysis was performed using a goat anti-Karyopherin α2 (C-20) antibody (sc-6917, Santa Cruz Biotechnology), and a rabbit anti-NFYA (H-209) antibody (sc-10779, Santa Cruz Biotechnology). An anti-β-tubulin (H-235) antibody (sc-9104, Santa Cruz Biotechnology) was used to control for cytoplasmic protein loading and a rabbit anti-TATA-box binding protein (TBP) (N-12) and antibody (sc-204, Santa Cruz Biotechnology) to control for nuclear protein loading. Densitometry was performed using Image J.

Series [16] relates to endogenous Kpnα2 nuclear localisation in CaSki cells. The series is described as above. It counts as cell-based. As to conditions: IC50 concentration, 48 hours (FIGS. 11, 12). As for the experimental part:
as §2

The subject of a further series is Cytochrome C release. The experiment in a line: Mitochondrial and cytoplasmic protein extraction, Cytochrome C Western Blot. The class given is cell-based. Conditions: varying concentrations, 24 hours (FIG. 27). As for the experimental part: Cells were grown in 10 cm plates and treated with varying concentrations of Compound A for 24 hours. Cells were lysed in subcellular fractionation buffer (250 mM sucrose, 20 mM HEPES, 10 mM KCl, 1.5 mM MgCl2, 1 mM EDTA, 1 mM EGTA, 1 mM DTT and 1× complete protease inhibitor cocktail (Roche)), passed through a 25G needle and incubated on ice for 20 minutes. The nuclear pellet was obtained after centrifugation at 720 g for 5 minutes. The supernantant was further centrifuged at 10,000 g and the resulting supernatant used as the cytoplasmic fraction. The pellet containing the mitochondrial fraction was washed in subcellular fractionation buffer and passed through a 25G needle. The mitochondrial fraction was pelleted at 10,000 g and resuspended in RIPA buffer. Western Blot analysis was performed using a mouse anti-Cytochrome C antibody (BD Pharmingen, San Diego, Calif.), and anti-β-tubulin (H235) (sc-9104, Santa Cruz) and anti-Pereroxiredoxin-3 (PRDX-3) (P1247, Sigma) antibodies were used as protein loading controls for cytoplasmic and mitochondrial fractions, respectively.

Series [17] is described as follows: Body mass of tumour-bearing mice during treatment. The class given is in vivo. As to conditions: WHCO6 tumour-bearing mice; 50 mg/kg i.p. over the course of the treatment (FIG. 29). As for the experimental part: WHCO6 cells were harvested and resuspended in PBS. For tumour inoculation, cancer cells (5×10^6 per mouse) were s.c. implanted into the hind flanks of female nude mice. Once tumours had reached a palpable size, drug treatment was initiated, where tumour-bearing mice were randomized and dosed i.p. with either vehicle (DMSO) or Compound A (50 mg/kg), every 2-3 days for 3 weeks. Tumour volumes were measured twice a week, using calipers, and tumour volume estimated using the following formula: volume=(length×width×width)/2. Mice were sacrificed 3 weeks after the commencement of drug treatment.

For the compound `CN(C)CCCn1c(N)c(-c2nc3ccccc3[nH]2)c2nc3ccccc3nc21` [Compound A, 3-(1H-benzimidazol-2-yl)-1-(3-dimethylaminopropyl)pyrrolo[5,4-b]quinoxalin-2-amine], the IC50 (usually the point on the concentration scale where inhibition reaches its midpoint) was 9.09 µM in series [1] (48 hours); 9.09 µM in [1] (Homo sapiens, 48 h); 12.7 µM in [2]; 5.79 µM in series [3]; 7.7 µM in series [4]; 9.33 µM in series [5] (48 hours). The half-inhibitory concentration (IC50) in [5] (Homo sapiens, Ca-Ski, 48 h) turned out to be 9.33 µM; in series [6], 31.4 µM; in series [7], 21.4 µM; in series [8] it was 11.7 µM; in series [9] it was 8.84 µM; in [10], 9.33 µM. Further, the IC50 in series [11] stood at 10.5 µM; in [12] it was 10.4 µM; in series [13], 24 µM. The “number of cells containing cytoplasmic GFP-Kpnα2” value in [14] (24 hours (FIG. 9)) is reported as “significant increase”. Moreover, in series [14] (24 hours (FIG. 10)), the “GFP-Kpnα2 nuclear fluorescence signal” value is “significant decrease”. The “NFY in the nuclear fraction” value in series [15] is “decrease”. Further, the “amount of Kpnα2 in the nucleus” value in series [16] is “decrease”. Moreover, in the series with Cytochrome C release, the “release of Cytochrome C from the mitochondria into the cytoplasm” value was “release of Cytochrome C from the mitochondria into the cytoplasm, in a dose-dependent manner”. For the same compound, the “body mass of the mice” value in [17] is on record as “did not change”.
